In patent US20160311788A1, “Antifouling Compounds And Use Thereof” (National University of Singapore, priority 2008, published 2016):
Converted amounts (≈) assume the structure as drawn. Like-named read-outs stand apart in the source and are kept apart here.

Columns and labels:
[1] = test system: marine bacteria strain S1; test: disc inhibition assay, strain S1; format: cell-based, Rhodovulum iodosum; details: strain 1, 50 μg of compound per disc
Description: (§1) The disc inhibition assay was used. This assay is a conventional method routinely used for screening antibacterial compounds to determine degree of susceptibility to antibacterial compounds. The diameter of the zone of inhibition is proportional to the degree of susceptibility of the bacterial strain. The compounds were tested against 13 strains of marine bacteria isolated from Singapore coastal waters.
(§2) 13 strains of marine bacteria were isolated from fouling communities located in the coastal waters around Singapore. These were characterized in earlier studies and reported in Teo et al. (U.S. patent application Ser. No. 11/265,833) and Choong et al (in prep). In addition, four reference bacterial strains were added tested: Escherichia coli (Strain K12, ATCC 15222), E. coli (strain DH5a), Pseudomonas aeruginosa (strain LMG 12228; ATCC 15692) and P. putida (strain KT2440; ATCC 47054). All the bacteria were also tested against five antibiotics: ampicillin (AMP), tetracycline (TETR), erythromycin (ERY), chloramphenicol (CHL) and streptomycin (STREP).
(§3) Disks comprising the compounds to be tested were prepared as follows. The antibacterial assay, the pure compounds were made up to a concentration of 2 mgml^−1 in DMSO. 25 μl of the stock was pipetted onto each 6 mm sterile disc (Macherey-Nagel #484000) to obtain 50 μg of compound per disc. Equivalent volume of DMSO was used inoculated for the control.
(§4) For all disk inhibition assays, bacterial cultures were grown in marine broth (Pronadisa #1217.00). Sterile swabs dipped into the cultures were used to inoculate Marine Agar plates with a bacterial lawn by smearing the culture over the surface. After inoculating the plates, discs with antibiotics, pharmaceuticals or control blanks were placed on each plate. Each concentration of antibiotic or pharmaceutical was tested with two replicates. After the disks were placed on the agar surface, plates were incubated overnight in the dark at 35° C. After incubation, plates were examined for zones of inhibition or clearing around control and treated disks. The diameter of any zone of clearing or inhibition was measured using Vernier calipers. There were two replicates per treatment, and the average was taken.

[2] = test system: marine bacteria strain S3; test: disc inhibition assay, strain S3; format: cell-based, Erythrobacter aquimaris; details: for zone of inhibition at 50 µg/disc: Qipengyuania aquimaris, S3, 24 h
Description: as §1, §2, §3, §4

[3] = test system: marine bacteria strain S4; test: disc inhibition assay, strain S4; format: cell-based, Bacillus algicola; details: strain 4, 50 μg of compound per disc
Description: as §1, §2, §3, §4

[4] = test system: marine bacteria strain S9; test: disc inhibition assay, strain S9; format: cell-based, Bacillus algicola; details: strain 9, 50 μg of compound per disc; for zone of inhibition at 50 µg/disc: Guptibacillus algicola, S9, 24 h, read-out: zone of inhibition
Description: as §1, §2, §3, §4

[5] = test system: marine bacteria strain S10; test: disc inhibition assay, strain S10; format: cell-based, Halobacillus trueperi; details: strain 10, 50 μg of compound per disc
Description: as §1, §2, §3, §4

[6] = test system: marine bacteria strain S14; test: disc inhibition assay, strain S14; format: cell-based, Vibrio probioticus; details: strain 14, 50 μg of compound per disc
Description: as §1, §2
(§5) Disks comprising the compounds to be tested were prepared as follows. The antibacterial assay, the pure compounds were made up to a concentration of 2 mgml^−1 in DMSO. […] Equivalent volume of DMSO was used inoculated for the control.
as §4

[7] = test system: marine bacteria strain S16; test: disc inhibition assay, strain S16; format: cell-based, Pseudoalteromonas piscicida; details: strain 16, 50 μg of compound per disc; for zone of inhibition at 50 µg/disc: Pseudoalteromonas piscicida, S16, 24 h, read-out: zone of inhibition
Description: as §1, §2, §3, §4

[8] = test system: marine bacteria strain S17; test: disc inhibition assay, strain S17; format: cell-based, Gordonia terrae; details: strain 17, 50 μg of compound per disc
Description: as §1, §2, §3, §4

[9] = test system: marine bacteria strain S18; test: disc inhibition assay, strain S18; format: cell-based, Microbacterium esteraromaticum; details: strain 18, 50 μg of compound per disc
Description: as §1, §2, §5, §4

[10] = test system: marine bacteria strain S27; test: disc inhibition assay, strain S27; format: cell-based, Tenacibaculum lutimaris; details: strain 27, 50 μg of compound per disc
Description: as §1, §2, §3, §4

[11] = test system: marine bacteria strain S28; test: disc inhibition assay, strain S28; format: cell-based, Arthrobacter protophormial; details: strain 28, 50 μg of compound per disc
Description: as §1, §2, §3, §4

[12] = test system: marine bacteria strain S29; test: disc inhibition assay, strain S29; format: cell-based, Bacillus hwajinpoensis; details: strain 29, 50 μg of compound per disc
Description: as §1, §2, §3, §4

[13] = test system: marine bacteria strain S30; test: disc inhibition assay, strain S30; format: cell-based, Bacillus borophilicus; details: strain 30, 50 μg of compound per disc
Description: as §1, §2, §3, §4

[14] = test system: Stage II nauplii of Balanus amphitrite; test: barnacle toxicity assay; format: in vivo; details: Table 3(a); concentration that caused 50% mortality, 22 to 24 hours, Stage II nauplii
Description: (§6) Pure compounds were suspended in DMSO and sonicated to obtain a stock solution of 50 mg ml^−1 in DMSO. This stock solution is stored at −20° C. in 4 ml amber screw cap vials. For the bioassays, a small volume of stock solution was added to 1 μm filtered seawater in a glass scintillation vial. This suspension was then sonicated around 10 minutes. Serial dilutions were generated to the required range of concentrations. Serial dilution of the equivalent amounts of DMSO in seawater was used as the control.
(§7) The barnacle bioassay method used follows from the method first introduced by Rittschof et al. (1992), and subsequently by other authors (Willemsen et al., 1998). This method is now standard practice for many antifouling screening of novel compounds.
Toxicity assays were modified from Rittschof et al. (1992). Stage II naupliar larvae used in tests were obtained from Balanus amphitrite adults collected from inter-tidal rock walls at Kranji mangrove, Singapore. Larvae were collected from a container of adults by attraction to a point source of light and transferred to 500 ml of fresh seawater. Next, larvae were re-concentrated with a fiber optic light and added to assays.
Duplicate assays were conducted in 2 ml glass vials (La Pha Pack® PN 11-14-0544) in 1 ml of filtered seawater for 22 to 24 hours. The assays were repeated for confirmation. There were two sets of controls, a blank control consisting of 3 tubes of seawater only, and DMSO control consisting of the equivalent dilution series with DMSO without compound). For the compounds, there were 3 tubes of each for each test concentration. The assay was initiated by addition of barnacle naupliar in 50 μl of seawater. After 22 to 24 hours of incubation at 25-27° C. solutions containing test animals were transferred to a Bogorov tray and scored as living or dead. Moribund larvae were scored as dead. Results were confirmed by repeating the assay. Data were combined and the concentration that caused 50% mortality (LD50) was calculated by probit analysis using a basic computer program (Libermann, 1983). If data were not appropriate for probit analysis, the LD50 was estimated from graphed data.

[15] = test system: cyprids of Balanus amphitrite; test: barnacle settlement assay; format: in vivo; details: Amphibalanus amphitrite, 24 h, concentration that caused 50% settlement inhibition, 24 hours, cyprids
Description: as §6, §7
Barnacle settlement assays were based on methodology from Rittschof et al. (1992). Barnacle larvae from field-collected adults were reared on an algal mixture of 1:1 v/v of Tetraselmis suecica and Chaetoceros muelleri at 25° C., at approximately 5×10^5 cells per ml density. On this regime, larvae metamorphose to cyprids in 5 days. These cyprids were aged at 4° C. for 2-3 days, and 45-70% settlement after 24 hours (Willemsen et al., 1998).
Settlement tests were conducted in 7 ml neutral glass vials (Samco® T1 03N1) 34 mm by 23 mm diameter, with 20-40 cyprids per well. Test solutions were made up to twice the required final concentration. 0.5 ml of test solution was added into each well, and cyprids were transferred into each well in 0.5 ml of seawater. Assays were done in triplicate. As before, there were two sets of controls, a blank control consisting 3 tubes of seawater only, and DMSO control consisting of the equivalent dilution series with DMSO without compound. After 24 hours, larvae that had attached and metamorphosed were enumerated and the result expressed as percentage settlement. Larvae not attached were scored as not settled. The assays were repeated and the concentration that caused 50% settlement inhibition (ED50) was determined by pro bit analysis using a basic computer program (Lieberman, 1983), or by estimation from graphed data.

[16] = strain 3, 50 μg of compound per disc
[17] = Table 3(a), read-out: ED50 (the source's name)
[18] = strain 3, 50 μg of compound per disc, read-out: zone of inhibition

SMILES	zone of inhibition [1]	zone of inhibition [2, 16]	zone of inhibition at 50 µg/disc [4] [mm]	zone of inhibition [5]	zone of inhibition [6]	zone of inhibition at 50 µg/disc [7] [mm]	zone of inhibition [8]	zone of inhibition [9]	zone of inhibition [10]	zone of inhibition [11]	zone of inhibition [12]	zone of inhibition [13]	LD50 [14] [µg/mL]	IC50 [15, 17] [µg/mL]	zone of inhibition at 50 µg/disc [2, 18] [mm]	zone of inhibition [3]	zone of inhibition [4]	zone of inhibition [7]	other results
OC1(c2ccc(Cl)cc2)CCNCC1 [Compound 3.4]	−	−	2 to 5	−	−	2 to 5	−	−	−	−	−	−	8.41	43.9 (≈ 208 µM)					zone of inhibition at 50 µg/disc ([3]; Guptibacillus algicola, S4, 24 h, read-out: zone of inhibition): 2 to 5 mm
O=C(Cc1ccccc1)N1CCC(O)(c2ccccc2)CC1 [Compound 10.4]	−		2 to 5	−	−	2 to 5	−	−		−	−	−	> 50	15 (≈ 50.8 µM)	2 to 5	−			zone of inhibition at 50 µg/disc ([10]; Tenacibaculum lutimaris, S27, 24 h, read-out: zone of inhibition): 2 to 5 mm
CN(C)C(=O)C(c1ccccc1)c1ccccc1 [Compound 3.1, diphenamid, reference compound]	−			−	−		−	−	−	−	−	−	> 50			−	−	−	zone of inhibition at 50 µg/disc [2]: 2 to 5 mm; IC50 ([15]; read-out: ED50, Table 3(a)): 15.1 µg/mL (≈ 63.1 µM)
O=C(C(c1ccccc1)c1ccccc1)N1CCC(O)(c2ccccc2)CC1 [Compound 4.5]	−			−	−		−	−	−	−	−	−	> 50	6.48 (≈ 17.4 µM)	5 to 10	−	−	−	
CCCCC(CCCC)C(=O)N(C)C [Compound 12.3]	−	−		−	−		−	−	−	−		−	> 50	2.76 (≈ 13.8 µM)		−	−	−	zone of inhibition at 50 µg/disc ([12]; Guptibacillus hwajinpoensis, S29, 24 h, read-out: zone of inhibition): 2 to 5 mm
